Here are results for 4 compounds from ChEMBL document CHEMBL5728270, “Immunomodulator compounds” (2021).

By pIC50 is commonly meant the IC50 on a negative log10 scale, so that one unit is a factor of ten.

pIC50: −log10 of the molar value.

This assay can be described thus: Enzyme-Linked Immunosorbent Assay ELISA: 96 Well plates were coated with […] of human PD-L1 (obtained from R&D) in PBS overnight at 4° C. The wells were then blocked with 2% BSA in PBS (W/V) with 0.05% TWEEN-20 for 1 hour at 37° C. The plates were washed 3 times with PBS/0.05% TWEEN-20 and the compounds were serial diluted (1:5) in dilution medium and added to the ELISA plates. Human PD-1 and biotin 0.3 μg/mL (ACRO Biosystems) were added and incubated for 1 hour at 37° C. then washed 3 times with PBS/0.05% TWEEN-20. A second block was performed with 2% BSA in PBS (W/V)/0.05% TWEEN-20 for 10 min at 37° C. and was washed 3 times with PBS/0.05% TWEEN-20. Streptavidin-HRP was added for 1 hour at 37° C. then washed 3 times with PBS/0.05% TWEEN-20. TMB substrate was added and reacted for 20 min at 37° C. A stop solution (2 N aqueous H2SO4) was added. The absorbance was read at 450 nm using a micro-plate spectrophotometer. Background: An ELISA detects its analyte on a solid surface through an enzyme-linked reagent.
Compound `C[C@@](CO)(NCc1cc(Cl)c(O[C@H]2CCc3c(-c4cccc(OCCCN5CCC(O)CC5)c4Cl)cccc32)cc1OCc1cncc(C#N)c1)C(=O)O` showed a pIC50 of more than 8.30.
Then `Cc1c(OCCCN2CCC(O)CC2)cccc1-c1cccc2c1CC[C@@H]2Oc1cc(OCc2cc(C#N)cc(C#N)c2)c(CN[C@@](C)(CO)C(=O)O)cc1Cl`, with more than 8.30.
The compound `Cc1c(OCCCN2CCC(O)CC2)cccc1-c1cccc2c1CC[C@@H]2Oc1cc(OCc2cncc(C#N)c2)c(CN[C@H](C(=O)O)[C@@H](C)O)cc1Cl` gave a pIC50 of more than 8.30.
`N#Cc1cncc(COc2cc(O[C@H]3CCc4c(-c5cccc(OCCCN6CCC(F)CC6)c5Cl)cccc43)c(Cl)cc2CN[C@H]2CCOC[C@@H]2O)c1` gave a negative logarithm of the IC50 (pIC50) of more than 8.30.
